Assay results taken from ChEMBL document CHEMBL4364305, “Medicinal leech antimicrobial peptides lacking toxicity represent a promising alternative strategy to combat antibiotic-resistant pathogens” (Eur J Med Chem, 2019).
Values after ≈ are worked out from the molar mass of the structure shown. Active and inactive are the calls of the source. The rule behind the calls is not given here. Residues, ends and D or L forms follow the SMILES beside them.

Assays:
Chlamydia trachomatis = assay: Antibacterial activity against Chlamydia trachomatis D/UW-3/Cx infected in mouse McCoy cells assessed as reduction in infected cells preincubated for 2 hrs and measured after 48 hrs by immunofluorescence method; assay type: functional
Escherichia coli [1] = assay: Antibacterial activity against Escherichia coli MG1655 assessed as reduction in bacterial cell growth incubated for 24 hrs by microtiter dilution method; assay type: functional; conditions: MG1655, 24 h
Bacillus subtilis [2] = assay: Antibacterial activity against Bacillus subtilis 168 HT assessed as reduction in bacterial cell growth incubated for 24 hrs by microtiter dilution method; assay type: functional
[3] = Cytotoxicity against mouse McCoy cells assessed as cell viability at 0.5 to 4 times of antibacterial MIC incubated for 48 hrs by calcein AM and ethidium homodimer-1 staining based epifluorescence microscopic method relative to control; conditions: read-out: Activity
Escherichia coli [4] = assay: Antibacterial activity against Escherichia coli MG1655 assessed as reduction in bacterial cell structural integrity at 0.5 antibacterial MIC incubated for 8 or 24 hrs by scanning electron microscopy; assay type: functional, organism-based
Bacillus subtilis [5] = assay: Antibacterial activity against Bacillus subtilis 168 HT assessed as reduction in bacterial cell structural integrity at 0.5 antibacterial MIC incubated for 8 or 24 hrs by scanning electron microscopy; assay type: functional, organism-based
Lipid bilayer [6] = assay: Disruption of large POPC:POPS unilamellar vesicle membrane assessed as release of carboxyfluorescein measured after 1 min by fluorescence based method
Lipid bilayer [7] = assay: Disruption of large POPS unilamellar vesicle membrane assessed as release of carboxyfluorescein measured after 1 min by fluorescence based method
Lipid bilayer [8] = assay: Disruption of large POPC:DOPG unilamellar vesicle membrane assessed as release of carboxyfluorescein measured after 1 min by fluorescence based method
Lipid bilayer [9] = assay: Disruption of large POPC unilamellar vesicle membrane assessed as release of carboxyfluorescein measured after 1 min by fluorescence based method
Bacillus subtilis [10] = assay: Induction of morphological changes in Bacillus subtilis 168 HT assessed as cellular debris formation at 0.5 antibacterial MIC incubated for 8 or 24 hrs by scanning electron microscopy; assay type: functional, organism-based
[11] = Hemolytic activity in human Erythrocyte at 100 uM measured after 1 hr relative to control; assay type: ADME, cell-based; conditions: erythrocytes, read-out: Activity
[12] = Cytotoxicity against mouse McCoy cells assessed as reduction in cell viability at 4 times of antibacterial MIC incubated for 48 hrs by calcein AM and ethidium homodimer-1 staining based epifluorescence microscopic method relative to control
[13] = Hemolytic activity in human Erythrocyte at 50 uM measured after 1 hr relative to control; assay type: ADME, cell-based; conditions: erythrocytes, read-out: Activity
[14] = Hemolytic activity in human Erythrocyte at 6.25 uM measured after 1 hr relative to control; assay type: ADME, cell-based; conditions: erythrocytes, read-out: Activity

| MIC90 (Chlamydia trachomatis) [µM] | MIC (Escherichia coli [1]) [µM] | MIC (Bacillus subtilis [2]) [µM] | SMILES | further results |
| --- | --- | --- | --- | --- |
| 12.5 (≈ 15.9 µg/mL) | 100 (≈ 128 µg/mL) | 12.6 (≈ 16.1 µg/mL) | CC[C@H](C)[C@H](NC(=O)[C@H](CC(C)C)NC(=O)[C@@H](N)CS)C(=O)N[C@@H](CCSC)C(=O)N[C@@H](CCCCN)C(=O)N[C@H](C(=O)N[C@@H](CCCNC(=N)N)C(=O)N[C@@H](CCCNC(=N)N)C(=O)N[C@@H](CCCCN)C(=O)N[C@@H](CCCCN)C(=O)O)C(C)C (H-CLIMKVRRKK-OH) |  |
| 3.1 (≈ 4.83 µg/mL) | 10.3 (≈ 16 µg/mL) | 10.3 (≈ 16 µg/mL) | CC[C@H](C)[C@H](NC(=O)[C@H](CCCNC(=N)N)NC(=O)[C@H](CCSC)NC(=O)[C@@H](NC(=O)[C@H](CCCNC(=N)N)NC(=O)[C@@H](N)Cc1ccccc1)[C@@H](C)CC)C(=O)N[C@@H](CC(C)C)C(=O)N[C@@H](CCCNC(=N)N)C(=O)N[C@H](C(=O)N[C@@H](CC(C)C)C(=O)N[C@@H](CCCCN)C(=O)N[C@@H](CC(C)C)C(=O)O)C(C)C (H-FRIMRILRVLKL-OH) | viability at 48 h [3]: 100%; Activity (Escherichia coli [4]): Active; Activity (Bacillus subtilis [5]): Active; Activity (Lipid bilayer [6]): Dose-dependent effect; Activity (Lipid bilayer [7]): Dose-dependent effect; Activity (Lipid bilayer [8]): Dose-dependent effect; Activity (Lipid bilayer [9]): inactive; Activity (Bacillus subtilis [10]): inactive |
| > 100 | > 97 | 97 (≈ 128 µg/mL) | CC[C@H](C)[C@H](NC(=O)[C@H](CCCCN)NC(=O)[C@H](Cc1ccccc1)NC(=O)[C@H](CCCNC(=N)N)NC(=O)[C@H](CCCCN)NC(=O)[C@@H](NC(=O)[C@@H](NC(=O)[C@H](Cc1ccccc1)NC(=O)CN)[C@@H](C)CC)C(C)C)C(=O)N[C@@H](CC(C)C)C(=O)N[C@H](C(=O)O)C(C)C (H-GFIVKRFKILV-OH) | hemolysis at 1 h, 100 µM [11]: 30%; Activity [12]: 100% |
| > 100 | > 102 | > 102 | CC[C@H](C)[C@H](N)C(=O)N[C@@H](CCCCN)C(=O)N[C@H](C(=O)N[C@H](C(=O)N[C@@H](C)C(=O)N1CCC[C@H]1C(=O)N[C@@H](CCCCN)C(=O)N[C@@H](CCCCN)C(=O)N[C@H](C(=O)N[C@@H](CCCCN)C(=O)N[C@@H](CC(C)C)C(=O)O)[C@@H](C)CC)C(C)C)[C@@H](C)CC (H-IKIVAPKKIKL-OH) |  |
| 12.5 (≈ 21.3 µg/mL) | 37.6 (≈ 64 µg/mL) | 9.4 (≈ 16 µg/mL) | CC[C@H](C)[C@H](N)C(=O)N[C@@H](CO)C(=O)N[C@@H](CCCNC(=N)N)C(=O)N[C@@H](C)C(=O)N[C@@H](CS)C(=O)N[C@@H](CC(C)C)C(=O)N[C@H](C(=O)N[C@@H](CCSC)C(=O)N[C@@H](CCCCN)C(=O)N[C@H](C(=O)N[C@@H](CCCNC(=N)N)C(=O)N[C@@H](CCCNC(=N)N)C(=O)N[C@@H](CCCCN)C(=O)N[C@@H](CCCCN)C(=O)O)C(C)C)[C@@H](C)CC (H-ISRACLIMKVRRKK-OH) |  |
| 12.5 (≈ 17.8 µg/mL) | 90 (≈ 128 µg/mL) | 45 (≈ 64.1 µg/mL) | CC[C@H](C)[C@H](NC(=O)[C@@H](NC(=O)[C@H](CCCCN)NC(=O)[C@H](CCCCN)NC(=O)[C@H](Cc1ccccc1)NC(=O)[C@@H](N)CCCCN)C(C)C)C(=O)N[C@@H](Cc1c[nH]c2ccccc12)C(=O)N[C@@H](CCCCN)C(=O)N[C@@H](CO)C(=O)N[C@@H](Cc1ccccc1)C(=O)N[C@@H](CC(C)C)C(=O)O (H-KFKKVIWKSFL-OH) | hemolysis at 1 h, 50 µM [13]: 50%; viability at 48 h [3]: 100% |
| 12.5 (≈ 19.7 µg/mL) | > 81 | 40.7 (≈ 64.1 µg/mL) | CC[C@H](C)[C@H](NC(=O)[C@@H](N)CC(C)C)C(=O)N[C@H](C(=O)N[C@@H](CC(C)C)C(=O)N[C@H](C(=O)N[C@@H](CS)C(=O)N[C@@H](CCCNC(=N)N)C(=O)N[C@@H](CCCCN)C(=O)N[C@@H](CCCCN)C(=O)N[C@@H](CCCCN)C(=O)N[C@@H](CCCCN)C(=O)N1CCC[C@H]1C(=O)N[C@@H](Cc1ccccc1)C(=O)O)[C@@H](C)O)C(C)C (H-LIVLTCRKKKKPF-OH) | Activity [12]: 100% |
| > 100 | > 92 | > 92 | CC[C@H](C)[C@H](NC(=O)CNC(=O)[C@@H](NC(=O)[C@H](CCCCN)NC(=O)[C@@H](NC(=O)CNC(=O)[C@H](CC(C)C)NC(=O)[C@H](Cc1c[nH]c2ccccc12)NC(=O)[C@H](CCCNC(=N)N)NC(=O)[C@@H](N)CC(C)C)[C@@H](C)O)C(C)C)C(=O)N[C@@H](CC(C)C)C(=O)N[C@@H](CCCCN)C(=O)O (H-LRWLGTKVGILK-OH) |  |
| > 100 | 77.1 (≈ 128 µg/mL) | 9.7 (≈ 16.1 µg/mL) | CC[C@H](C)[C@H](NC(=O)[C@@H](NC(=O)[C@H](CCCNC(=N)N)NC(=O)[C@@H](NC(=O)[C@H](CCCNC(=N)N)NC(=O)[C@H](CCCNC(=N)N)NC(=O)[C@@H](NC(=O)[C@H](CCCNC(=N)N)NC(=O)[C@@H](NC(=O)[C@H](CC(C)C)NC(=O)[C@@H](NC(=O)[C@@H]1CCCN1C(=O)[C@@H](N)CCCNC(=N)N)[C@@H](C)CC)[C@@H](C)CC)C(C)C)[C@@H](C)CC)C(C)C)C(=O)O (H-RPILIRVRRIRVI-OH) | Activity [12]: Toxic |
| 6.3 (≈ 11.7 µg/mL) | 17.2 (≈ 32.1 µg/mL) | 8.6 (≈ 16 µg/mL) | CC(C)C[C@H](NC(=O)[C@H](Cc1ccccc1)NC(=O)[C@H](CS)NC(=O)[C@@H](NC(=O)[C@H](CC(C)C)NC(=O)[C@H](CCCNC(=N)N)NC(=O)[C@H](Cc1c[nH]c2ccccc12)NC(=O)[C@@H](N)CCCNC(=N)N)C(C)C)C(=O)N[C@@H](CS)C(=O)N[C@@H](CCCNC(=N)N)C(=O)N[C@@H](CCCNC(=N)N)C(=O)N[C@@H](CCCCN)C(=O)N[C@@H](CCCCN)C(=O)N[C@H](C(=O)O)C(C)C (H-RWRLVCFLCRRKKV-OH) | hemolysis at 1 h, 100 µM [11]: 30%; viability at 48 h [3]: 100%; Activity (Escherichia coli [4]): Active; Activity (Bacillus subtilis [5]): Active; Activity (Lipid bilayer [6]): Dose-dependent effect; Activity (Lipid bilayer [7]): Dose-dependent effect; Activity (Lipid bilayer [8]): Dose-dependent effect; Activity (Lipid bilayer [9]): inactive |
| 50 (≈ 83.1 µg/mL) | 77 (≈ 128 µg/mL) | 38.5 (≈ 64 µg/mL) | CC[C@H](C)[C@H](NC(=O)[C@H](CCCCN)NC(=O)[C@@H](N)Cc1c[nH]c2ccccc12)C(=O)N[C@@H](Cc1ccccc1)C(=O)N[C@@H](CCCCN)C(=O)N[C@@H](CC(C)C)C(=O)N[C@@H](CCCCN)C(=O)N[C@@H](CC(C)C)C(=O)N[C@@H](CCCNC(=N)N)C(=O)N[C@@H](CCSC)C(=O)N[C@@H](CC(C)C)C(=O)N[C@@H](Cc1c[nH]c2ccccc12)C(=O)O (H-WKIFKLKLRMLW-OH) | hemolysis at 1 h, 6.25 µM [14]: 50% |
| > 100 | > 82 | > 82 | CC[C@H](C)[C@H](NC(=O)CNC(=O)[C@H](C)NC(=O)[C@H](Cc1cnc[nH]1)NC(=O)[C@@H](NC(=O)[C@H](CCCCN)NC(=O)[C@H](Cc1ccc(O)cc1)NC(=O)[C@@H]1CCCN1C(=O)[C@@H](NC(=O)[C@H](CC(C)C)NC(=O)[C@H](CCCCN)NC(=O)[C@H](CCCCN)NC(=O)[C@@H](N)Cc1c[nH]c2ccccc12)C(C)C)[C@@H](C)CC)C(=O)O (H-WKKLVPYKIHAGI-OH) |  |

| SMILES | MIC90 (Chlamydia trachomatis) [µM] | MIC (Escherichia coli [1]) [µM] | MIC (Bacillus subtilis [2]) [µM] | further results |
| --- | --- | --- | --- | --- |
| CC[C@H](C)[C@H](NC(=O)CN)C(=O)NCC(=O)N[C@@H](C)C(=O)N[C@H](C(=O)N[C@@H](CC(C)C)C(=O)N[C@@H](CCCCN)C(=O)N[C@H](C(=O)N[C@@H](CC(C)C)C(=O)N[C@H](C(=O)N[C@H](C(=O)NCC(=O)N[C@@H](CC(C)C)C(=O)N1CCC[C@H]1C(=O)N[C@@H](C)C(=O)N[C@@H](CC(C)C)C(=O)N[C@H](C(=O)N[C@@H](CO)C(=O)N[C@@H](Cc1c[nH]c2ccccc12)C(=O)N[C@H](C(=O)N[C@@H](CCCCN)C(=O)N[C@@H](CCCNC(=N)N)C(=O)N[C@@H](CCCCN)C(=O)N[C@@H](CCCNC(=N)N)C(=O)N[C@@H](CCC(N)=O)C(=O)N[C@@H](CCC(N)=O)C(N)=O)[C@@H](C)CC)[C@@H](C)CC)[C@@H](C)O)[C@@H](C)O)C(C)C)C(C)C [MELITTIN] | 2 (≈ 5.69 µg/mL) |  |  |  |
